Assay results from patent US3962443A, “Antibacterial pharmaceutical compositions and processes for preparation thereof” (Dainippon Pharmaceutical Co., Ltd., priority 1972, dated 1976).
Values after ≈ are worked out from the molar mass of the structure shown. Read-outs that look alike come from different tables or passages of the source.

Legend:
[1] = test system: Pseudomonas aeruginosa Tsuchijima; assay: In vitro antibacterial activity, MIC by serial dilution; format: cell-based; details: nutrient broth pH 7.0, 37°C, 48 hours
Experimental: (§1) The minimum inhibitory concentration (MIC) was determined by the well
(§2) known serial dilution method.
(§3) Experimental conditions:?
(§4) Medium: nutrient broth, pH 7.0 (5 ml/tube)
(§5) Inoculum: 1 drop of 1 : 10^5 dilution of an overnight broth culture
(§6) Incubation temperature and time: 37°C for 48 hours

Escherichia coli K-12 = assay: as above; format: cell-based
Experimental: as §1, §2, §3, §4, §5, §6

[2] = test system: Staphylococcus aureus Terajima; assay: as above; format: cell-based; details: nutrient broth pH 7.0, 37°C, 48 hours
Experimental: as §1, §2, §3, §4, §5, §6

[3] = test system: Pseudomonas aeruginosa No. 12; assay: In vivo efficacy against systemic infection with Pseudomonas aeruginosa in mice; parameters: species or system mice (ddY-S); details: for ED50: twice, about 5 minutes and 6 hours after infection
Experimental: (§7) In the Tables II to IV, the ED50 and ID50 values were calculated in accordance with the Behrens-Kaerber method [Arch. Exp. Path. Pharm., 162, 480 (1931)]. The compound numbers are those described in the Examples and compounds PA and AT-616 are as follows:
(§8) total number. 0/8 means that all of 8 mice died. 8/8 means that all 8 mic
(§9) Mice: male mice (ddY-S) weighing 20 g approximately

[4] = test system: Salmonella typhimurium S-9; assay: In vivo efficacy against systemic infection with Salmonella typhimurium in mice; parameters: species or system mice (ddY-S); details: for ED50: Salmonella enterica, TYPHIMURIUM, 336 h, twice a day for 4 days, 14 days observation; for number of the survived/the total number: 14 days
Experimental: as §7
The numerical figures in the table show the number of the survived/the
as §8
Experimental conditions.
Organism: Salmonella typhimurium S-9
as §9
Infection: Intraperitoneal infection with 50 to 100 LD50 of a
bacterial suspension in nutrient broth (about 10^5 cells/mouse)
Medication: twice a day for 4 days from the day of infection.
Drug: an alkaline solution for parenteral administration and suspension i
0.2% CMC for oral administration
i.e.: intraperitoneal administration
p.o.: oral administration

[5] = test system: Mycobacterium tuberculosis H37 Rv; assay: Antituberculous activity in vitro, MIC by serial dilution; format: cell-based; details: H37RV, 504 h, Kirchner medium with 0.2% bovine albumin, pH 7.0, 37°C, 3 weeks
Experimental: (§10) The minimum inhibitory concentration (MIC:μg/ml) was determined by the
(§11) well known serial dilution method.
as §3
(§12) Medium: Kirchner medium containing 0.2% bovine albumin, pH 7.0 (3 ml/tube
(§13) Inoculum: 1 drop of 1:10^2 dilution of a culture in Modified Kirchner
(§14) medium for 2 weeks (OD=0.3) per tube
(§15) Incubation temp. and time: 37°C for 3 weeks

[6] = test system: Mycobacterium tuberculosis Kurono; assay: as above; format: cell-based; details: 504 h, Kirchner medium with 0.2% bovine albumin, pH 7.0, 37°C, 3 weeks
Experimental: as §10, §11, §3, §12, §13, §14, §15

[7] = Escherichia coli, K12, 48 h, pH 7
[8] = NO.12, 168 h, ip, 50 mg/kg, 7 days, read-out: number of the survival/the total number (converted)
[9] = NO.12, 168 h, po, 7 days, read-out: number of the survival/the total number (converted)
[10] = K12, Escherichia coli K-12, nutrient broth pH 7.0, 37°C, 48 hours, read-out: MIC

SMILES | MIC [1] [µg/mL] | MIC [2] [µg/mL] | ED50 ([3]; NO.12, 168 h, ip, 7 days) [mg/kg] | ED50 ([3]; NO.12, 168 h, po, 7 days) [mg/kg] | ED50 ([4]; ip) [mg/kg] | ED50 ([4]; po) [mg/kg] | number of the survived/the total number ([4]; po, 50 mg/kg) | responders at 200 mg/kg [3, 9] [%] | MIC (Escherichia coli K-12; [10]) [µg/mL] | further results
CCn1cc(C(=O)O)c(=O)c2cnc(N3CCNCC3)nc21 [Compound 1, 5,8-Dihydro-8-ethyl-2-(1-piperazinyl)-5-oxopyrido[2,3-d]pyrimidine-6-carboxylic acid] | 10 (≈ 33 µM) | 30 (≈ 98.9 µM) | 10.5 | 100 | 6.3 | 12.5 | 8/8 | – | – | MIC (Escherichia coli K-12; [7]): 1 µg/mL (≈ 3.3 µM); responders at 3.1 mg/kg ([3]; NO.12, ip, 168 h, read-out: number of the survival/the total number, ip, 3.1 mg/kg, 7 days): 12.5%; responders at 6.3 mg/kg ([3]; NO.12, ip, 168 h, read-out: number of the survival/the total number, ip, 6.3 mg/kg, 7 days): 25%; responders at 12.5 mg/kg ([3]; NO.12, ip, 168 h, read-out: number of the survival/the total number, ip, 12.5 mg/kg, 7 days): 50%; responders at 50 mg/kg ([3]; NO.12, ip, 168 h, read-out: number of the survival/the total number, ip, 50 mg/kg, 7 days): 100%; responders at 50 mg/kg ([3]; NO.12, po, 168 h, read-out: number of the survival/the total number, po, 50 mg/kg, 7 days): 0%; responders at 100 mg/kg ([3]; NO.12, po, 168 h, read-out: number of the survival/the total number, po, 100 mg/kg, 7 days): 50%; number of the survived/the total number ([4]; ip, 6.3 mg/kg): 4/8; number of the survived/the total number ([4]; ip, 12.5 mg/kg): 8/8; number of the survived/the total number ([4]; ip, 25 mg/kg): 8/8; number of the survived/the total number ([4]; po, 6.3 mg/kg): 0/8; number of the survived/the total number ([4]; po, 12.5 mg/kg): 4/8; number of the survived/the total number ([4]; po, 25 mg/kg): 8/8
CCCn1cc(C(=O)O)c(=O)c2cnc(N3CCNCC3)nc21 [Compound 2, 5,8-Dihydro-2-(1-piperazinyl)-8-n-propyl-5-oxopyrido[2,3-d]pyrimidine-6-carboxylic acid] | 30 (≈ 94.5 µM) | 100 (≈ 315 µM) | 35.4 | < 200 | – | – | – | 62.5 | – | MIC (Escherichia coli K-12; [7]): 3 µg/mL (≈ 9.45 µM); responders at 50 mg/kg [3, 8]: 100%
CCn1cc(C(=O)O)c(=O)c2cnc(N3CCN(CC(C)O)CC3)nc21 (stereo not shown) [Compound 4, 5,8-Dihydro-8-ethyl-2-[4-(2-hydroxy-n-propyl)-1-piperazinyl]-5-oxopyrido[2,3-d]pyrimidine-6-carboxylic acid] | 100 (≈ 277 µM) | 30 (≈ 83 µM) | – | – | < 35.4 | < 35.4 | 8/8 | – | 3 (≈ 8.3 µM) | number of the survived/the total number ([4]; ip, 50 mg/kg): 8/8
CCn1cc(C(=O)O)c(=O)c2cnc(N3CCN(c4ccccc4)CC3)nc21 [Compound 6, 5,8-Dihydro-8-ethyl-2-(4-phenyl-1-piperazinyl)-5-oxoprido[2,3-d]pyrimidine-6-carboxylic acid] | – | – | – | – | – | – | – | – | – | MIC [5]: 6.3 µg/mL (≈ 16.6 µM); MIC [6]: 6.3 µg/mL (≈ 16.6 µM)
CCn1cc(C(=O)O)c(=O)c2cnc(N3CCNCC3)nc21.Cl [Compound 11, 5,8-Dihydro-8-ethyl-2-(1-piperazinyl)-5-oxopyrido[2,3-d]pyrimidine-6-carboxylic acid hydrochloride] | 10 | 30 | < 17.7 | < 100 | – | < 35.4 | 8/8 | 100 | 3 | responders at 25 mg/kg ([3]; NO.12, 168 h, ip, 25 mg/kg, 7 days, read-out: number of the survival/the total number (converted)): 100%; responders at 100 mg/kg ([3]; NO.12, 168 h, po, 100 mg/kg, 7 days, read-out: number of the survival/the total number (converted)): 87.5%
CCn1cc(C(=O)O)c(=O)c2cnc(N3CCN(Cc4ccc(OC)cc4)CC3)nc21 [Compound 17] | 100 (≈ 236 µM) | 10 (≈ 23.6 µM) | – | – | – | – | – | – | 3 (≈ 7.08 µM) | –
CCN1CCN(c2ncc3c(=O)c(C(=O)O)cn(CC)c3n2)CC1 [Compound 21, 2-(4-ethyl-1-piperazinyl)-5,8-dihydro-8-ethyl-5-oxopyrido[2,3-d]pyrimidine-6-carboxylic acid] | 100 (≈ 302 µM) | 30 (≈ 90.5 µM) | ~100 | ~200 | < 17.7 | < 17.7 | – | 50 | 1 (≈ 3.02 µM) | responders at 50 mg/kg [3, 8]: 0%; responders at 100 mg/kg ([3]; NO.12, 168 h, ip, 100 mg/kg, 7 days, read-out: number of the survival/the total number (converted)): 50%; number of the survived/the total number ([4]; ip, 25 mg/kg): 8/8; number of the survived/the total number ([4]; po, 25 mg/kg): 8/8
